Assay results published in patent US7767196B2, “Optimized relaxivity and specificity hepatobiliary MRI contrast agent” (priority 2005, dated 2010).
Values joined by “and” are separate entries in the source; they are usually repeats but may differ in a detail not shown here. Equal values may be shown once. Read-outs that look alike come from different tables or passages of the source.

Tests used:
[1] = cited from earlier work
[2] = test system: rats; conditions: cited from earlier work
[3] = NMRD profile / relaxometric measurements (1H longitudinal relaxivity, incl. temperature and pH dependence); type: physicochemical; conditions: for R1p: 20 MHz and 25° C.; for relaxivity (NMRD profile): 20 MHz, 7.2 pH and 25° C.; for rGdH / Δ^2 / τr / τv: fitting parameter, NMRD profile
Text: Relaxivity is used to describe the efficiency of a paramagnetic substance in increasing the water longitudinal relaxation rate. NMRD profiling is a direct method of measuring the proton relaxivity, and in principle it is sensitive to all of the parameters that influence relaxivity. It is the nuclear relaxation rate (1/T1) as a function of the Larmor frequency or the magnetic field, and describes the excess longitudinal proton relaxation that is caused by the presence of contrast agents as a function of the magnetic field using a field-cycling technique. The NMRD profile can probe the relaxivity mechanisms and understand how changes in the chemical structure of the complex interfere with them. The change in experimental parameters such as temperature and pressure influences the physical or chemical state of the sample, but the variation of the magnetic field has no influence on the chemistry of the sample. Thus, NMRD is a useful technique in the understanding of the numerous physiochemical parameters that determine the field dependence of proton relaxivities. The innersphere, outersphere, and second sphere contribute to the overall relaxivity and are influenced by numerous parameters, which are too complex to be well-defined by a single NMRD study; usually, reference to independent ^17O NMR relaxation rates and chemical shift is made. By the equations 2-7, several parameters that are related to the outersphere, and innersphere relaxation, such as the hydration number q, the τm, τR, τv, Δ^2, and rGdH, can be estimated.
As shown in FIGS. 5-8, all complexes have one innersphere water molecule. At low field, the electronic relaxation dominates the dipole-dipole correlation time for innersphere relaxivity and results in the first dispersion at around a […] proton Larmor frequency, while at high field, rotation relaxation dominates and the dispersion is at around 30 MHz. The higher relaxivity as compared to the clinical agents is postulated to the longer reorientational correlation time τR and the shorter rGdH. Relaxivity has a dependence on the τR at 20 MHz, which is determined by the molecular dimension.
The temperature and pH dependence of the longitudinal relaxivity were measured to study the tolerance of the complex under different physiological conditions (see FIGS. 9-10). At the low temperature under the slow exchange rate (τm>>T1M) a relatively longer τm is insignificant. The innersphere quenching is not severed and is not dominated by the outersphere mechanism at 273-278 K. Beyond 278 K the innersphere contribution increases up to 288 K. This is the τm≈T1M region, where the onset of the innersphere and the slow water exchange is not interfered with. From 288 K to 330 K, there is a gradual drop in the relaxivity due to the increase in D and T1M which causes both the innersphere and outersphere relaxivities to fall under the fast exchange condition (τm<<T1M). The relaxivity is 4.93 mM^−1s^−1at physiological temperature. […] The structural arrangement around the metal centre is not severely distorted, which allows a high stability against different pH.
NMRD profiles measure the longitudinal water proton relaxation rate as a function of magnetic fields. Measurements were performed by a Spinmaster FFC fast field cycling NMR relaxometer that covered a continuum of magnetic fields from 0.00024 to 0.47 T. The temperature was controlled by circulating Freon from an external bath and measured by a thermometer that was inserted into the Freon close to the sample. The relaxometer worked under complete control with the reproducibility of the measured T1 values estimated to be ±2%. The NMRD profiles were acquired for a 1-2 mM solution of the complex. Xylenol orange test was employed to check the absence of free Gd(III).

[4] = Variable-temperature 17O NMR transverse relaxation (water exchange); type: physicochemical; conditions: for τm: fitting parameter, 17O transverse relaxivity study
Protocol: Further investigation into the transverse relaxivity changes against temperature as shown in FIG. 6 was performed to determine the exchange rate. The maximum appears at a lower temperature, which implies a faster water exchange rate. The water exchange rates of the discussed ligands are in the order of Gd-BOPTA (kex=5.0×10^6)>Gd-DTPA (kex=4.0×10^6)>Gd-DOTA (kex=3.3×10^6)>GdL (kex=1.1×10^6). As anionic complexes promote water exchange, the first three complexes are anionic species with faster water exchange rates. GdL is neutral with a lower exchange rate, but with a lower osmolality, and importantly, the highest relaxivity.
Variable-temperature ^17O NMR measurements were recorded on a JEOL EX-90 (2.1 T) spectrometer that was equipped with a 5 mm probe, using D2O for external lock of the magnetic field. Experimental settings were spectral width 10000 Hz, pulse width 7 μs, acquisition time 10 ms, 1000 scans, and no sample spinning. The solution used contained ^17O enriched water (2.6%, Yeda, Israel). The observed transverse relaxation rate (R^O2obs) was calculated from the line width of the resonance at half height (Δν1/2): R^O2obs=πΔν1/2.

[5] = test system: hepatocytes; conditions: cited from earlier work
[6] = test system: hepatocytes; conditions: cited from earlier work; remark: listed apart in the source
[7] = test system: non-tumorigenic immortalized liver cell line (MIHA); experiment: Hepatocellular uptake (ICP-MS of Gd per cell); type: cell-based
Protocol: The non-tumorigenic immortalized liver cell line (MIHA) was grown and incubated in different concentrations of GdL and Gd-BOPTA. The mole of gadolinium uptake per cell under different concentrations of GdL incubation is presented as a function of concentration in FIG. 16. […] The average increase is 7.2×10^−13 mole of Gd per cell (about 1.97 times more than Gd-BOPTA) and the maximum uptake is 3.1×10^−12 mol of Gd per cell at 5 mM. There was no gadolinium ion found in the control experiments in the absence of GdL. The uptake varied slightly at the incubation concentration of less than 0.5 mM and linearly when the concentration increases from 0.5 to 5 mM. […]
The non-tumorigenic immortalized liver cell line (MIHA) (kindly provided by Dr J. R. Chowdhury at the Albert Einstein College of Medicine, New York) was grown in a 96-well plate (polystyrene, flat bottom tissue-culture treated, black with clear bottom) with Dulbecco's modified Eagle's medium (DMEM with 4 mM L-glutamine modified to contain 4.5 g l^−1 glucose and 1.5 g l^−1 sodium bicarbonate) containing 10% Bovine Calf Serum (BCS) in a 5% carbon dioxide incubator. […] The cells were exposed to 100 μl of 0.25% trypsin and harvested, then counted by hemacytometer. […] The samples were analyzed by Agilent 7500a ICP-MS with ICP-MS Top installed.

[8] = test system: liver; conditions: Schima et al., J. Magn. Res. Imaging 1999; cited from earlier work
[9] = versus 0.29 osmol kg^−1 of body fluid; cited from earlier work
[10] = test system: liver; conditions: 0.1 mmol kg^−1 dose, intravenous bolus; cited from earlier work
[11] = 20 MHz, temperature in parentheses: 40

In the case of `COCCNC(=O)CN(CCN(CCN(CC(=O)[O-])CC(=O)NCCOC)CC(=O)[O-])CC(=O)[O-].[Gd+3]` [Gd-BMEA, gadoversetamide], the Relaxivity [1, 11] is given as 4.70 (40) mM^−1 s^−1.
For `CC(O)CN1CCN(CC(=O)[O-])CCN(CC(=O)[O-])CCN(CC(=O)[O-])CC1.[Gd+3]` (stereo not shown) [Gd-HP-DO3A, gadoteridol], the Relaxivity [1, 11] is given as 3.70 (40) mM^−1 s^−1.
For `[Gd+3]` [Gd(III) aqua ion], the LD50 [2] is given as 0.1 to 0.2 mmol/kg.
With `CNC[C@H](O)[C@@H](O)[C@H](O)[C@H](O)CO.O=C([O-])CN1CCN(CC(=O)[O-])CCN(CC(=O)O)CCN(CC(=O)[O-])CC1.[Gd+3]` [Gd-DOTA, gadoterate meglumine] the R1p [3] was 4.73 mM⁻¹ s⁻¹, the “relaxivity (NMRD profile)” value [3] was 4.73 mM⁻¹ s⁻¹ and the rGdH [3] was 3.10 Å. For the same molecule, the “Δ^2” value [3] was 1.3 E19 s^−1, the τr [3] was 73 ps and the τv [3] was 7.7 ps. The “water exchange rate kex” value [4] was 3.3×10^6, the τm [4] was 300 ns and the Relaxivity ([1]; 20 MHz and 25° C.) was 4.73 mM⁻¹ s⁻¹.
For `CCOc1ccc(C[C@@H](CN(CCN(CC(=O)[O-])CC(=O)[O-])CC(=O)[O-])N(CC(=O)[O-])CC(=O)[O-])cc1.[Gd+3].[Na+].[Na+]` [Gd-EOB-DTPA], the “hepatic (hepatocellular) uptake” value ([5]; in vivo) is listed as 50 % of the injected dose and the hepatocellular uptake ([6]; rat, in vivo) is listed as 70%.
For `O=C([O-])CN1CCN(CC(=O)[O-])CCN([C@H](CO)[C@H](O)CO)CCN(CC(=O)[O-])CC1.[Gd+3]` (racemic) [Gd-DO3A-butrol, gadobutrol], the Relaxivity [1, 11] is given as 3.60 (40) mM^−1 s^−1.
With `CNC[C@H](O)[C@@H](O)[C@H](O)[C@H](O)CO.CNC[C@H](O)[C@@H](O)[C@H](O)[C@H](O)CO.O=C([O-])CN(CCN(CC(=O)[O-])CC(=O)O)CCN(CC(=O)O)C(COCc1ccccc1)C(=O)[O-].[Gd+3]` (stereo not shown) [Gd-BOPTA, gadobenate dimeglumine] the R1p [3] was 5.20 mM⁻¹ s⁻¹, the “relaxivity (NMRD profile)” value [3] was 5.20 mM⁻¹ s⁻¹ and the rGdH [3] was 2.96 Å. For the same molecule, the “Δ^2” value [3] was 4.2 E19 s^−1, the τr [3] was 88 ps and the τv [3] was 26 ps. For the same molecule, the “water exchange rate kex” value [4] was 5.0×10^6, the τm [4] was 200 ns and the “dose dependence of uptake” value [7] was “not significant”. For the same molecule, the Relaxivity ([1]; 20 MHz and 25° C.) was 5.2 mM⁻¹ s⁻¹ and 5.20 mM⁻¹ s⁻¹, the hepatic intensity enhancement [8] was 55% and the “percentage of contrast agent excreted” value ([5]; humans, intravenous injection) was “over 95%”. The “hepatic (hepatocellular) uptake” value ([5]; humans) was 3-5 % of the injected dose and the hepatocellular uptake ([6]; rats) was 38.6%.
For `CNC(=O)CN(CCN(CCN(CC(=O)[O-])CC(=O)NC)CC(=O)[O-])CC(=O)[O-].[Gd+3]` [Gd-BMA, gadodiamide], the Relaxivity ([1]; 20 MHz and 25° C.) is given as 4.39 mM⁻¹ s⁻¹.
For `CNC[C@H](O)[C@@H](O)[C@H](O)[C@H](O)CO.CNC[C@H](O)[C@@H](O)[C@H](O)[C@H](O)CO.O=C([O-])CN(CCN(CC(=O)[O-])CC(=O)O)CCN(CC(=O)[O-])CC(=O)O.[Gd+3]` [Gd-DTPA, gadopentetate dimeglumine], the R1p [3] was 4.69 mM⁻¹ s⁻¹, the rGdH [3] was 3.10 Å and the “Δ^2” value [3] was 4.2 E19 s^−1. The τr [3] was 73 ps, the τv [3] was 20 ps and the “water exchange rate kex” value [4] was 4.0×10^6. The τm [4] was 250 ns, the Relaxivity ([1]; 20 MHz and 25° C.) was 4.69 mM⁻¹ s⁻¹ and the osmolality [9] was 1.96 osmol kg^−1. The tolerance [10] was “good tolerance”.
